According to ChEMBL document CHEMBL1201862, “PubChem BioAssay data set” (2004):
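The compound was tested at five concentrations on cells cultured in 96-well plates, with a 48-hour exposure period. The concentration for 50% growth inhibition is given as GI50.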 Active and inactive are the calls of the source. Cut-off read from the data, not from the text of the source: active = GI50 up to about 1.1 µM and inactive = higher.

What was measured:
Assay in all cases: growth of human tumour cells (NCI), 48 h
[1] = system: HCT-15
[2] = system: HCT-116
[3] = system: TK-10
[4] = system: SR
[5] = system: UO-31
[6] = system: RPMI-8226
[7] = system: SW-620
[8] = system: NCI-H522
[9] = system: ACHN
[10] = system: SK-MEL-2
[11] = system: Malme-3M
[12] = system: SNB-19
[13] = system: SF-268
[14] = system: HCC 2998
[15] = system: SK-OV-3
[16] = system: UACC-62
[17] = system: NCI/ADR-RES

SMILES	GI50 [1]	GI50 [2]	GI50 [3]	GI50 [4]	GI50 [5]	GI50 [6]	GI50 [7]	GI50 [8]	GI50 [9]	GI50 [10]	GI50 [11]	GI50 [12]	GI50 [13]	GI50 [14]	GI50 [15]	GI50 [16]	GI50 [17]
CCOC(=O)Oc1ccc2[nH]c3c(C)cc(N)c(C)c3c2c1	> 100 µM	> 100 µM (inactive)	> 100 µM (inactive)	> 100 µM (inactive)	> 100 µM (inactive)	72.3 µM (inactive)	> 100 µM (inactive)	> 100 µM (inactive)	> 100 µM (inactive)	> 100 µM (inactive)	87.7 µM (inactive)	> 100 µM (inactive)	> 100 µM (inactive)	> 100 µM (inactive)	–	–	–
CCOC(=O)C1=C(OC(OCC)C(C)[Se]c2ccccc2)CCC1 (stereo not drawn)	17.5 µM	18.9 µM (inactive)	> 100 µM (inactive)	6.4 µM (inactive)	24.7 µM (inactive)	13 µM (inactive)	–	13.1 µM (inactive)	26.9 µM (inactive)	> 100 µM (inactive)	28.1 µM (inactive)	36.1 µM (inactive)	13.3 µM (inactive)	78.3 µM (inactive)	94 µM (inactive)	15.2 µM (inactive)	–
O=P(NCCCO)(OCc1ccccc1)N(CCCl)CCCl (stereo not drawn)	> 100 µM	> 100 µM (inactive)	–	–	> 100 µM (inactive)	–	> 100 µM (inactive)	> 100 µM (inactive)	–	> 100 µM (inactive)	> 100 µM (inactive)	> 100 µM (inactive)	> 100 µM (inactive)	> 100 µM (inactive)	> 100 µM (inactive)	> 100 µM (inactive)	> 100 µM (inactive)
O=C(Nc1cccs1)c1c(O)[nH]c(=S)[nH]c1=O	> 100 µM	–	> 100 µM (inactive)	> 100 µM (inactive)	> 100 µM (inactive)	> 100 µM (inactive)	> 100 µM (inactive)	> 100 µM (inactive)	> 100 µM (inactive)	> 100 µM (inactive)	–	> 100 µM (inactive)	> 100 µM (inactive)	–	> 100 µM (inactive)	> 100 µM (inactive)	–
O=C1NC(=S)NC(=O)C1=CC1CC1	> 100 µM	> 100 µM (inactive)	> 100 µM (inactive)	> 100 µM (inactive)	> 100 µM (inactive)	> 100 µM (inactive)	> 100 µM (inactive)	> 100 µM (inactive)	> 100 µM (inactive)	> 100 µM (inactive)	> 100 µM (inactive)	> 100 µM (inactive)	> 100 µM (inactive)	> 100 µM (inactive)	> 100 µM (inactive)	> 100 µM (inactive)	–
C[C@]12CCC(=O)C=C1CC[C@@H]1[C@@H]2[C@@H](O)C[C@@]2(C)[C@H]1CC[C@]2(O)C(=O)COC(=O)CCC1CCCC1 [HYDROCORTISONE CYPIONATE]	> 100 µM	> 100 µM (inactive)	> 100 µM (inactive)	> 100 µM (inactive)	> 100 µM (inactive)	–	> 100 µM (inactive)	> 100 µM (inactive)	> 100 µM (inactive)	–	> 100 µM (inactive)	> 100 µM (inactive)	> 100 µM (inactive)	> 100 µM (inactive)	5.83 µM (inactive)	> 100 µM (inactive)	–
N=C(N)SCc1cccc([N+](=O)[O-])c1	34.5 µM	26.5 µM (inactive)	–	–	36.8 µM (inactive)	22.8 µM (inactive)	36.6 µM (inactive)	13.5 µM (inactive)	–	24 µM (inactive)	34.2 µM (inactive)	> 10 µM (inactive)	33 µM (inactive)	34.1 µM (inactive)	> 57.1 µM (inactive)	39.5 µM (inactive)	21.2 µM (inactive)
COC(=O)C(=Cc1cc(OC)c(OC)c(OC)c1-c1cc2c(cc1C(C)=O)OCO2)C(=O)OC	24.2 µM	32.2 µM (inactive)	77.8 µM (inactive)	50.4 µM (inactive)	–	35.5 µM (inactive)	46.1 µM (inactive)	28.5 µM (inactive)	46.8 µM (inactive)	32.4 µM (inactive)	38.7 µM (inactive)	39 µM (inactive)	57.1 µM (inactive)	40.3 µM (inactive)	71.9 µM (inactive)	32.6 µM (inactive)	–
CCOc1ccc(/N=N/c2ccc3oc(=O)c(/C(C)=N\NC(=O)CC(=O)Nc4ccc(Cl)cc4)cc3c2)cc1	6.25 µM	16.4 µM (inactive)	12.9 µM (inactive)	3.47 µM (inactive)	12.2 µM (inactive)	16.2 µM (inactive)	17.8 µM (inactive)	18.6 µM (inactive)	22.4 µM (inactive)	3.43 µM (inactive)	16 µM (inactive)	27.3 µM (inactive)	19.6 µM (inactive)	16.3 µM (inactive)	19.9 µM (inactive)	10.1 µM (inactive)	–
COc1cc2c(c3oc(-c4ccc5c(c4)OCO5)c(O)c(=O)c13)CCC(C)(C)O2	> 100 µM	–	> 100 µM (inactive)	–	> 100 µM (inactive)	34.5 µM (inactive)	> 100 µM (inactive)	–	–	> 100 µM (inactive)	–	> 100 µM (inactive)	–	> 100 µM (inactive)	> 100 µM (inactive)	> 100 µM (inactive)	–
CC(=O)OC1COC(N2C(=O)/C(=N\NC(N)=S)c3cc(Br)ccc32)C(OC(C)=O)C1OC(C)=O (stereo not drawn)	61.9 µM	27.2 µM (inactive)	> 100 µM (inactive)	19.5 µM (inactive)	–	17.6 µM (inactive)	77.8 µM (inactive)	> 100 µM (inactive)	60.3 µM (inactive)	> 100 µM (inactive)	32.7 µM (inactive)	> 100 µM (inactive)	38.5 µM (inactive)	> 100 µM (inactive)	> 100 µM (inactive)	35.6 µM (inactive)	–
CC(=O)Oc1cc2c(cc1OC(C)=O)OCC(c1ccc(C)cc1)C2 (stereo not drawn)	19.6 µM	20.7 µM (inactive)	–	–	20.6 µM (inactive)	11.6 µM (inactive)	19.5 µM (inactive)	2.64 µM (inactive)	–	20 µM (inactive)	19 µM (inactive)	31.4 µM (inactive)	10.5 µM (inactive)	12.6 µM (inactive)	53.7 µM (inactive)	11.7 µM (inactive)	25.5 µM (inactive)
Cc1ccccc1NC(=O)c1c(C)oc2c1C(=O)c1ccccc1C2=O	32.1 µM	32.1 µM (inactive)	> 100 µM (inactive)	26.1 µM (inactive)	> 85.3 µM (inactive)	22.6 µM (inactive)	19.7 µM (inactive)	16.5 µM (inactive)	36.9 µM (inactive)	30.5 µM (inactive)	10.2 µM (inactive)	35.6 µM (inactive)	31.8 µM (inactive)	51.5 µM (inactive)	> 100 µM (inactive)	22 µM (inactive)	–
c1cc2c3c(c1)c1cc4c(cc1c[n+]3CC2)OCO4 [ANHYDROLYCORINIUM CHLORIDE]	> 164 µM	2.81 µM (inactive)	–	–	> 127 µM (inactive)	2.14 µM (inactive)	1.9 µM (inactive)	2.3 µM (inactive)	–	4.26 µM (inactive)	0.871 µM (active)	1.17 µM (inactive)	0.618 µM (active)	2.75 µM (inactive)	10.2 µM (inactive)	5.85 µM (inactive)	> 225 µM (inactive)
O=C1[C@H]2ON(c3ccccc3)C(c3ccc([N+](=O)[O-])cc3)[C@H]2C(=O)N1c1ccc(Cc2ccc(N3C(=O)[C@@H]4ON(c5ccccc5)C(c5ccc([N+](=O)[O-])cc5)[C@@H]4C3=O)cc2)cc1 (stereo partly drawn)	> 100 µM	> 100 µM (inactive)	> 100 µM (inactive)	–	> 100 µM (inactive)	> 100 µM (inactive)	> 100 µM (inactive)	> 100 µM (inactive)	> 100 µM (inactive)	> 100 µM (inactive)	58.6 µM (inactive)	> 100 µM (inactive)	> 100 µM (inactive)	> 100 µM (inactive)	> 100 µM (inactive)	67.3 µM (inactive)	–
CC(=O)NNc1nc(C)c(C(=O)NNC(=O)C(=O)Nc2c(C)cccc2C(C)C)s1	60.3 µM	84.1 µM (inactive)	> 100 µM (inactive)	40 µM (inactive)	> 100 µM (inactive)	57.5 µM (inactive)	55.3 µM (inactive)	35.4 µM (inactive)	60.1 µM (inactive)	> 100 µM (inactive)	59.3 µM (inactive)	> 100 µM (inactive)	59.6 µM (inactive)	> 100 µM (inactive)	> 100 µM (inactive)	59.7 µM (inactive)	–
CC1(c2ccc[n+](Cc3ccccc3)c2)OCCO1	> 100 µM	> 100 µM (inactive)	> 100 µM (inactive)	> 100 µM (inactive)	> 100 µM (inactive)	> 100 µM (inactive)	> 100 µM (inactive)	> 100 µM (inactive)	> 100 µM (inactive)	> 100 µM (inactive)	> 100 µM (inactive)	> 100 µM (inactive)	–	> 100 µM (inactive)	> 100 µM (inactive)	> 100 µM (inactive)	–
Cc1ccccc1/N=N/C(C(=O)c1ccccc1)C(=O)c1ccccc1	17.1 µM	16.1 µM (inactive)	44.8 µM (inactive)	–	17.2 µM (inactive)	16.1 µM (inactive)	25.9 µM (inactive)	15.7 µM (inactive)	27.4 µM (inactive)	19.7 µM (inactive)	31.7 µM (inactive)	18.9 µM (inactive)	23.3 µM (inactive)	40.8 µM (inactive)	41.6 µM (inactive)	20.9 µM (inactive)	–
Cc1cc(C)n(-c2nsc3ccccc23)n1	> 100 µM	> 100 µM (inactive)	> 100 µM (inactive)	> 100 µM (inactive)	> 100 µM (inactive)	> 100 µM (inactive)	> 100 µM (inactive)	–	> 100 µM (inactive)	> 100 µM (inactive)	–	> 100 µM (inactive)	> 100 µM (inactive)	> 100 µM (inactive)	–	> 100 µM (inactive)	–
